Earlier results on two molecules are cited in patent US6987129B2, “Compounds and methods for the treatment of urogenital disorders” (Cellegy Pharmaceuticals, Inc., priority 2001, dated 2006).

The subject of one data set is women with FSAD. Conditions: human, in vivo.
For data set [1] the following is noted: in vivo.

Regarding `CCCc1nn(C)c2c(=O)[nH]c(-c3cc(S(=O)(=O)N4CCN(C)CC4)ccc3OCC)nc12` [Sildenafil], in the data set with women with FSAD, the “efficacy in a larger clinical trial including other patients suffering from FSAD” value was “failed to show efficacy”; the “efficacy in women with spinal cord injury and in women using antidepressants such as serotonin reuptake inhibitors” value was “demonstrated efficacy”.

In the case of `Cn1c(=O)c2c(ncn2CC(O)CO)n(C)c1=O` (stereo not shown) [dyphylline], in data set [1], the excretion entry is recorded as “excreted unchanged by the kidneys” and the “metabolism by the liver” value is listed as “not metabolized by the liver”.
